Earlier results on three molecules are cited in patent US20210087552A1, “Methods, Compositions, and Systems for Classification of Genetic Variants of Unknown Significance” (Laboratory Corporation of America Holdings, priority 2019, published 2021).

SMILES strings stand for the structures.

Data set [1] has as its system individual mutations in ABL1, ASXL1, BRAF, CDKN2A, CEBPA, CSF3R, DNMT3A, EZH2, FLT3, IDH1, IDH2, JAK2, KIT, KMT2A, KRAS, NF1, NPM1, NRAS, PDGFRA, PML PTPN11 ….
In data set [2] the test system is individual mutations in ABL1, ASXL1, BRAF, CSF3R, DNMT3A, EZH2, FLT3, IDH2, JAK2, KIT, KRAS, NF1, NRAS, PDGFRA, PML PTPN11, and TET2.

For the molecule `Nc1ccn([C@@H]2O[C@H](CO)[C@@H](O)[C@@H]2O)c(=O)n1` [cytarabine], in data set [1], the “mutation associated with resistance to chemotherapeutic agent” value is “resistance”.

As to `CC(C)(C)c1nc(-c2cccc(NS(=O)(=O)c3c(F)cccc3F)c2F)c(-c2ccnc(N)n2)s1` [dabrafenib], in data set [1], the “mutation associated with resistance to chemotherapeutic agent” value is reported as “resistance”.

Turning to `Cc1cn(-c2cc(NC(=O)c3ccc(C)c(Nc4nccc(-c5cccnc5)n4)c3)cc(C(F)(F)F)c2)cn1` [nilotinib], the “mutation associated with resistance to agent” value in data set [2] is on record as “resistance”.
